According to patent US8354419B2, “Benzimidazole analogues for the treatment or prevention of flavivirus infections” (Vertex Pharmaceuticals Incorporated, priority 2009, dated 2013):

Tested on: HCV (Ib) RNA replication
Assay: Cell-based luciferase reporter HCV (1b) RNA replication assay (replicon cell lines Huh-7 5.2 and ET)
Design: species or system Hepatitis C virus
Conditions: Hepatitis C virus, Huh-7, 96 h, HCV 1b genotype replicon, luciferase readout, 4 days incubation; read-out: EC50_1b
Excerpt: Cell-Based Luciferase Reporter HCV (Ib) RNA Replication Assay Cell Culture
Replicon cell lines Huh-7, 5.2 and ET which are derived from the Huh-7 hepatocarcinoma cell line are maintained in culture as generally described in Krieger, N; Lohmann, V; Bartenschlager, R. Enhancement of hepatitis C virus RNA replication by cell culture-adaptive mutations. J. Virol. 2001, 75, 4614-4624. The Huh-7, 5.2 cells contain the highly cell culture-adapted replicon I389luc-ubi-neo/NS3-3′/5.1 construct that carries, in addition to the neomycin gene, an integrated copy to the firefly luciferase gene (Krieger, N; Lohmann, V; Bartenschlager, R. Enhancement of hepatitis C virus RNA replication by cell culture-adaptive mutations. J. Virol. 2001, 75, 4614-4624). This cell line allows measurement of HCV RNA replication and translation by measuring luciferase activity. It has been previously shown that the luciferase activity tightly follows the replicon RNA level in these cells (Krieger, N; Lohmann, V; Bartenschlager, R. Enhancement of hepatitis C virus RNA replication by cell culture-adaptive mutations. J. Virol. 2001, 75, 4614-4624). The Huh-7, ET cell line has the same features as those mentioned for Huh-7, 5.2 cell line, except that ET cells are more robust and contain an adaptative mutation in the HCV NS4B gene instead of NS5A. Both cell lines are maintained in cultures at a sub-confluent level (<85%) as the level of replicon RNA is highest in actively proliferating cells. The culture media used for cell passaging consist of DMEM (Gibco BRL Laboratories, Mississauga, ON, Canada) supplemented with 10% foetal bovine serum with 1% penicillin/streptomycin, 1% glutamine, 1% sodium pyruvate, 1% non-essential amino acids, and 180 ug/ml of G418 final concentration. Cells are incubated at 37° C., in an atmosphere of 5% CO2 and passaged twice a week to maintain sub-confluence.
Approximately 3000 viable Huh-7, 5.2 or ET cells (100 μl) are plated per well in a white opaque 96-well microtiter plate. The cell culture media used for the assay is the same as described above except that it contains no G418 and no phenol red. After an incubation period of 3-4 hours at 37° C. in a 5% CO2 incubator, compounds (100 μl) are added at various concentrations. Cells are then further incubated for 4 days at 37° C. in a 5% CO2 incubator. Thereafter, the culture media is removed and cells are lysed by the addition of 95 μL of the luciferase buffer (luciferin substrate in buffered detergent). Cell lysates are incubated at room temperature and protected from direct light for at least 10 minutes. Plates are read for luciferase counts using a luminometer (Wallac MicroBeta Trilux, Perkin ELmer™, MA, USA).
The 50% inhibitory concentrations (IC50s) for inhibitory effect are determined from dose response curves using eleven concentrations per compound in duplicate. Curves are fitted to data points using nonlinear regression analysis, and IC50s are interpolated from the resulting curve using GraphPad Prism software, version 2.0 (GraphPad Software Inc., San Diego, Calif., USA).
Table 2 show compounds representative of the present invention and the EC50 values against the HCV 1b genotype.

Compound: CC(C)C(NC(=O)C1CCCCC1)C(=O)N1CCC[C@H]1c1nc2cc(C#Cc3ccc4[nH]c([C@@H]5CCCN5C(=O)C(NC(=O)C5CCCCC5)C(C)C)nc4c3)ccc2[nH]1 (stereo partly drawn) [Compound 85]
- EC50: 5 to 5000 nM

Compound: CC(C)(C)OC(=O)N1CC(F)(F)C[C@H]1C(=O)N1CCC[C@H]1c1nc2cc(C#Cc3ccc4[nH]c([C@@H]5CCCN5C(=O)[C@@H]5CC(F)(F)CN5C(=O)OC(C)(C)C)nc4c3)ccc2[nH]1 [Compound 114]
- EC50: 5 to 5000 nM

Compound: O=C(OCc1ccccc1)N1CCC[C@H]1c1nc2cc(C#Cc3ccc4[nH]c([C@@H]5CCCN5C(=O)OCc5ccccc5)nc4c3)ccc2[nH]1 [Compound 31, (S)-2-{5-[2-((S)-1-Benzyloxycarbonyl-pyrrolidin-2-yl)-1H-benzoimidazol-5-ylethynyl]-1H-benzoimidazol-2-yl}-pyrrolidine-1-carboxylic acid benzyl ester]
- EC50: 5 to 5000 nM

Compound: CC(C)[C@H](NC(=O)OC(C)(C)C)C(=O)N1CCC[C@H]1c1nc2ccc(-c3ccc(-c4ccc5nc([C@@H]6CCCN6C(=O)[C@@H](NC(=O)OC(C)(C)C)C(C)C)[nH]c5c4)cc3)cc2[nH]1 [Compound 189]
- EC50: 5 to 5000 nM

Compound: CC(C)[C@H](NC(=O)O[C@H]1CCOC1)C(=O)N1CCC[C@H]1c1nc2cc(-c3ccc(-c4ccc5[nH]c([C@@H]6CCCN6C(=O)[C@@H](NC(=O)O[C@H]6CCOC6)C(C)C)nc5c4)s3)ccc2[nH]1 [Compound 101]
- EC50: 5 to 5000 nM

Compound: COC(=O)N[C@H](C(=O)N1CCC[C@H]1c1nc2cc(-c3ccc(-c4ccc5nc([C@@H]6CCCN6C(=O)[C@@H](NC(=O)OC)C(C)C)[nH]c5c4)cn3)ccc2[nH]1)C(C)C [Compound 6, ((S)-1-{(S)-2-[5-(5-{2-[(S)-1-((S)-2-Methoxycarbonylamino-3-methyl-butyryl)-pyrrolidin-2-yl]-1H-benzoimidazol-5-yl}-pyridin-2-yl)-1H-benzoimidazol-2-yl]-pyrrolidine-1-carbonyl}-2-methyl-propyl)-carbamic acid methyl ester]
- EC50: ≤ 5 nM

Compound: COCCCC(=O)N1CCC[C@H]1c1nc2cc(C#Cc3ccc4[nH]c([C@@H]5CCCN5C(=O)CCCOC)nc4c3)ccc2[nH]1 [Compound 105]
- EC50: 5 to 5000 nM

Compound: CC(C)(C)CC(=O)N1CCC[C@H]1c1nc2cc(C#Cc3ccc4[nH]c([C@@H]5CCCN5C(=O)CC(C)(C)C)nc4c3)ccc2[nH]1 [Compound 124]
- EC50: 5 to 5000 nM

Compound: COC(=O)N[C@H](C(=O)N1C[C@@H](C)C[C@H]1c1nc2cc(-c3ccc(-c4ccc5nc([C@@H]6C[C@@H](O)CN6C(=O)[C@H](NC(=O)OC)C(C)C)[nH]c5c4)cc3)ccc2[nH]1)C(C)C [Compound 246]
- EC50: ≤ 5 nM

Compound: COC(=O)N[C@H](C(=O)N1CCC[C@H]1c1nc2cc(-c3ccc(-c4ccc5[nH]c([C@@H]6CCCN6C(=O)[C@@H](NC(=O)OC)C(C)C)nc5c4)s3)ccc2[nH]1)C(C)C [Compound 17]
- EC50: ≤ 5 nM

Compound: COC(=O)N[C@H](C(=O)N1CCC[C@H]1c1nc2cc(-c3ccc(-c4ccc5[nH]c([C@@H]6CCCN6C(=O)[C@@H](Nc6ncccn6)C(C)C)nc5c4)cc3)ccc2[nH]1)C(C)C [Compound 241]
- EC50: ≤ 5 nM

Compound: CCN(C(=O)OC)[C@H](C(=O)N1C[C@@H](C)C[C@H]1c1nc2ccc(-c3ccc(-c4ccc5[nH]c([C@@H]6C[C@H](C)CN6C(=O)[C@@H](NC(=O)OC)C(C)C)nc5c4)cc3)cc2[nH]1)C(C)C [Compound 297]
- EC50: ≤ 5 nM

Compound: COC(=O)N1CCC[C@H]1C(=O)N1C[C@@H](C)C[C@H]1c1nc2cc(-c3ccc(-c4ccc5[nH]c([C@@H]6C[C@H](C)CN6C(=O)[C@@H]6CCCN6C(=O)OC)nc5c4)cc3)ccc2[nH]1 [Compound 287]
- EC50: ≤ 5 nM

Compound: COC(=O)N[C@H](C(=O)N1CCC[C@H]1c1nc2cc(-c3ncc(-c4ccc5nc([C@@H]6CCCN6C(=O)[C@@H](NC(=O)OC)C(C)C)[nH]c5c4)c(O)n3)ccc2[nH]1)C(C)C [Compound 20, ((S)-1-{(S)-2-[5-(4-Hydroxy-5-{2-[(S)-1-((S)-2-methoxycarbonylamino-3-methyl-butyryl)-pyrrolidin-2-yl]-1H-benzoimidazol-5-yl}-pyrimidin-2-yl)-1H-benzoimidazol-2-yl]-pyrrolidine-1-carbonyl}-2-methyl-propyl)-carbamic acid methyl ester]
- EC50: 5 to 5000 nM

Compound: O=C(OCc1ccccc1)N1CCCC[C@H]1c1nc2cc(C#CC#Cc3ccc4[nH]c([C@@H]5CCCCN5C(=O)OCc5ccccc5)nc4c3)ccc2[nH]1 [Compound 41, (S)-2-(5-{4-[2-((S)-1-Benzyloxycarbonyl-piperidin-2-yl)-1H-benzoimidazol-5-yl]-buta-1,3-diynyl}-1H-benzoimidazol-2-yl)-piperidine-1-carboxylic acid benzyl ester]
- EC50: 5 to 5000 nM

Compound: COC(=O)N[C@H](C(=O)N1C[C@@H](C)C[C@H]1c1nc2cc(-c3ccc(-c4ccc5[nH]c([C@@H]6C[C@H](C)CN6C(=O)[C@H](C(C)C)N(C)C(=O)OC)nc5c4)c(F)c3)ccc2[nH]1)C(C)C [Compound 286]
- EC50: ≤ 5 nM

Compound: COC(=O)N[C@H](C(=O)N1CCC[C@H]1c1nc2cc(-c3ncc(-c4ccc5nc([C@@H]6CCCN6C(=O)[C@@H](NC(=O)OC)C(C)C)[nH]c5c4)c(OCc4ccccc4)n3)ccc2[nH]1)C(C)C [Compound 19, ((S)-1-{(S)-2-[5-(4-Benzyloxy-5-{2-[(S)-1-((S)-2-methoxycarbonylamino-3-methyl-butyryl)-pyrrolidin-2-yl]-1H-benzoimidazol-5-yl}-pyrimidin-2-yl)-1H-benzoimidazol-2-yl]-pyrrolidine-1-carbonyl}-2-methyl-propyl)-carbamic acid methyl ester]
- EC50: ≤ 5 nM

Compound: COC(=O)N[C@H](C(=O)N1CCC[C@H]1c1nc2cc(-c3ccc(-c4ccc5nc([C@@H]6CCCN6C(=O)[C@@H](NC(=O)OC)C(C)C)[nH]c5c4)cc3CO)ccc2[nH]1)C(C)C [Compound 161]
- EC50: ≤ 5 nM

Compound: COC(=O)N[C@H](C(=O)N1CCC[C@H]1c1nc2cc(-c3ccc(-c4ccc5[nH]c([C@@H]6CCCN6C(=O)[C@@H](NC(=O)OC)C(C)C)nc5c4)c(S(C)(=O)=O)c3)ccc2[nH]1)C(C)C [Compound 150]
- EC50: ≤ 5 nM

Compound: COC(=O)N[C@H](C(=O)N1CCC[C@H]1c1nc2cc(C#Cc3ccc4[nH]c([C@@H]5CCCN5C(=O)[C@@H](NC(=O)OC)C5CCCCC5)nc4c3)ccc2[nH]1)C1CCCCC1 [Compound 95]
- EC50: ≤ 5 nM

Compound: COC(=O)N[C@H](C(=O)N1CCC[C@H]1c1nc2cc(-c3ccc(-c4ccc5[nH]c([C@@H]6CCCN6C(=O)[C@@H](NC(=O)OC)[C@@H](C)OC)nc5c4)cc3)ccc2[nH]1)[C@@H](C)OC [Compound 170]
- EC50: ≤ 5 nM

Compound: COC(=O)N[C@H](C(=O)N1CCC[C@H]1c1nc2cc(-c3csc(-c4ccc5[nH]c([C@@H]6CCCN6C(=O)[C@@H](NC(=O)OC)C(C)C)nc5c4)c3)ccc2[nH]1)C(C)C [Compound 18, methyl N-[(1S)-1-[(2S)-2-[5-[4-[2-[(2S)-1-[(2S)-2-(methoxycarbonylamino)-3-methyl-butanoyl]pyrrolidin-2-yl]-1H-benzimidazol-5-yl]-2-thienyl]-1H-benzimidazol-2-yl]pyrrolidine-1-carbonyl]-2-methyl-propyl]carbamate]
- EC50: ≤ 5 nM

Compound: COC(=O)N[C@H](C(=O)N1C[C@@H](C(F)(F)F)C[C@H]1c1nc2cc(-c3ccc(-c4ccc5[nH]c([C@@H]6C[C@H](C(F)(F)F)CN6C(=O)[C@@H](NC(=O)OC)C(C)C)nc5c4)cc3)ccc2[nH]1)C(C)C [Compound 316]
- EC50: ≤ 5 nM

Compound: COC(=O)N[C@H](C(=O)N1C[C@@H](C)C[C@H]1c1nc2ccc(-c3ccc(-c4ccc5nc([C@@H]6C[C@H](C)CN6C(=O)[C@@H](NC(=O)OC)C(C)C)n(C)c5c4)cc3)cc2n1C)C(C)C [Compound 293]
- EC50: ≤ 5 nM

Compound: COC(=O)N[C@@H](C)C(=O)N1CCC[C@H]1c1nc2cc(C#Cc3ccc4[nH]c([C@@H]5CCCN5C(=O)[C@H](NC(=O)OC)c5ccccc5)nc4c3)ccc2[nH]1 [Compound 55]
- EC50: ≤ 5 nM

Compound: CC(C)(C)OC(=O)N1CCCC[C@H]1c1nc2cc(-c3ccc(-c4ccc5nc([C@@H]6CCCCN6C(=O)OC(C)(C)C)[nH]c5c4)s3)ccc2[nH]1 [Compound 112]
- EC50: 5 to 5000 nM

Compound: COC(=O)N(C)[C@H](C(=O)N1CCC[C@H]1c1nc2cc(C#Cc3ccc4nc([C@@H]5CCCN5C(=O)[C@H](C(C)C)N(C)C(=O)OC)[nH]c4c3)ccc2[nH]1)C(C)C [Compound 63]
- EC50: ≤ 5 nM
